Patent US7402388B2, “Expression analysis of FKBP54 in assessing prostate cancer therapy” (Wyeth, priority 2000, dated 2008)
Like-named read-outs stand apart in the source and are kept apart here.

Key:
prostate cancer cells = assay: Sensitivity of prostate cancer cells to CCI-779; format: cell-based; conditions: some prostate cancer cells, data not shown
PSA [1] = system: PSA
FKBP54 [2] = assay: Western blot analysis of FKBP54 protein in LNCaP cells; format: cell-based, human
Description: For Western blot analysis, LNCaP cells were plated in 6-well plate at 1×10^6 cells/well in charcoal stripped serum containing medium. Cells were treated with 10 nM DHT and harvested at designated time. Cells were harvested in MPER reagent (Pierce, Rockford, Ill.) containing 400 mM NaCl. […] The PVDF membrane was incubated in TBST (TBS with 0.1% Tween-20) with 3% milk for 15 minutes before the addition of the first antibody, rabbit anti-FKBP54 (Affinity Bioreagents, Inc). After overnight incubation, the PVDF membrane was washed 3 times with TBST and incubated with a second antibody, anti-rabbit-IgG coupled with horseradish peroxidase (Transduction Labs) for one hour. The PVDF membrane was then washed 3 times with TBST and protein was detected by using an enhanced chemiluminescence detection system (Pierce).

LNCaP cells = conditions: MTT assay, FIG. 1A
Description: (§1) Human prostatic cancer cell lines LNCaP, DU-145, PC-3, and Tsu-prl were obtained from ATCC. LNCaP cancer cells were maintained in humidified atmosphere of 5% CO2 in air in RPMI 1640 medium supplemented with 10% fetal calf serum (Life Technologies, Inc, Rockville, Md.), 3 mM L-glutamine, 100 μg/ml streptomycin and 100 units/ml penicillin. Other lines were maintained in DMEM containing 3 mM L-glutamine, 100 μg/ml streptomycin, 100 units/ml penicillin, and 10% FCS in humidified atmosphere of 5% CO2. To examine the effects of steroids, cells were cultured in RPMI 1640 medium containing 5% FCS treated with dextran coated charcoal (Hyclone, Logan, Utah) for 24 hs before treatment. Cells were grown in the absence or presence of 10 nM DHT for 0, 2, 4, 6, 12, 24, 48, and 72 hs. They were collected and frozen at each time point. Two hundred μl of medium were collected from each flask for PSA assay.
To verify the effect of DHT on the growth of LNCaP cells, cells at 3,000 cells/well were plated in 96-well plates for 24 hs before treatment with DHT. After 72 hs, MTT was added to each well and incubated at 37° C. for four hs. At the end of incubation, the supernatant was removed and 100 μl DMSO was added to each well to dissolve […]. Plates were subsequently read in a plate reader at […].

PSA [3] = conditions: LNCaP cells, 10 nM DHT, mRNA frequency
FKBP54 [4] = conditions: LNCaP cells, 10 nM DHT, mRNA frequency
Description: as §1

androgen receptor (AR) = assay: Transient transfection of COS-1 cells, GREe1bLuc luciferase reporter of AR transcriptional activity; format: cell-based; conditions: COS-1 cells transfected with FKBP54 expression vector
Description: Bars represent the mean of at least three independent experiments±SD. To determine the effect of FKBP54 on the transcriptional activity of androgen receptor (AR), COS-1 cells were transiently transfected with a reporter construct containing androgen receptor response element along with an expression vector encoding FKBP54. […] The next morning, medium were replaced with 2-ml DMEM. Indicated amount of DNA in 100 μl of DMEM was mixed with 6 μl of PLUS reagent (Gibco) and incubated at room temperature while 4 μl of lipofectamine was mixed with 100 μl of DMEM. […] After incubation with DNA for 4 hours, 2 ml of phenol red-free DMEM containing 10% charcoal-stripped fetal bovine serum was added and cells treated with indicated chemicals for additional 24 hours before being harvested. Luciferase activity was determined using Promega's STEADY GLO™ Luciferase Assay System.

Molecule	FKBP54 protein expression (Western blot, blot not shown) (FKBP54 [2])	increase in level of FKBP54 expression (FKBP54 [2]; 24 hours post exposure)	increase in level of FKBP54 expression (FKBP54 [2]; 72 hours post exposure)	Quantitative Expression Levels of FKBP54 (band density values) (FKBP54 [2]; time 0 hr)	Quantitative Expression Levels of FKBP54 (band density values) (FKBP54 [2]; time 2 hr)	Quantitative Expression Levels of FKBP54 (band density values) (FKBP54 [2]; time 6 hr)	Quantitative Expression Levels of FKBP54 (band density values) (FKBP54 [2]; time 12 hr)	Quantitative Expression Levels of FKBP54 (band density values) (FKBP54 [2]; time 24 hr)	Quantitative Expression Levels of FKBP54 (band density values) (FKBP54 [2]; time 48 hr)	Quantitative Expression Levels of FKBP54 (band density values) (FKBP54 [2]; time 72 hr)	other results
CO[C@H]1C[C@@H]2CC[C@@H](C)[C@@](O)(O2)C(=O)C(=O)N2CCCC[C@H]2C(=O)O[C@H]([C@H](C)C[C@@H]2CC[C@@H](OC(=O)C(C)(CO)CO)[C@H](OC)C2)CC(=O)[C@H](C)/C=C(\C)[C@@H](O)[C@@H](OC)C(=O)[C@H](C)C[C@H](C)/C=C/C=C/C=C/1C [CCI-779]											sensitivity of prostate cancer cells (prostate cancer cells): sensitive
C[C@]12CCC(=O)C[C@@H]1CC[C@@H]1[C@@H]2CC[C@]2(C)[C@@H](O)CC[C@@H]12 [DHT, dihydrotestosterone]	upregulated the FKB54 expression in a time-dependent manner	approximately two-fold	approximately 4 fold	8.5	9.0	9.8	8.0	12.0	23.0	30.2	PSA production (PSA [1]): increased in a dose-dependent manner; time at which PSA signal was first detected (PSA [1]): 12 h; time of maximal PSA level (PSA [1]): about 48 hs; growth of LNCaP cells (LNCaP cells): stimulated by a natural androgen DHT in a dose-dependent manner; PSA expression increase relative to control (PSA [3]; 12 hours): 3 fold; PSA expression increase relative to control (PSA [3]; 72 hours): approximately 4 fold; FKBP54 expression induction relative to baseline (FKBP54 [4]; 6 hours): 2 fold; FKBP54 expression induction relative to baseline (peak) (FKBP54 [4]; 24 hours): approximately 4 fold
C[C@]1(O)CC[C@H]2[C@@H]3CCC4=CC(=O)CCC4=C3C=C[C@@]21C [R1881]	could also upregulate the FKBP54 expression	~10 fold	approximately 30 fold	1.8	5.3	5.9	5.0	20.1	27.2	34.4	
FKBP54: member of the immunophilin family, FK binding protein; transfected as expression vector encoding FKBP54 (protein, UniProt Q13451 1-457, looked up) Peptidyl-prolyl cis-trans …: MTTDEGAKNNEESPTATVAEQGEDITSKKDRGVLKIVKRVGNGEETPMIGDKVYVHYKGKLSNGKKFDSSHDRNEPFVFSLGKGQVIKAWDIGVATMKKGEICHLLCKPEYAYGSAGSLPKIPSNATLFFEIELLDFKGEDLFEDGGIIRRTKRKGEGYSNPNEGATVEIHLEGRCGGRMFDCRDVAFTVGEGEDHDIPIGIDKALEKMQREEQCILYLGPRYGFGEAGKPKFGIEPNAELIYEVTLKSFEKAKESWEMDTKEKLEQAAIVKEKGTVYFKGGKYMQAVIQYGKIVSWLEMEYGLSEKESKASESFLLAAFLNLAMCYLKLREYTKAVECCDKALGLDSANEKGLYRRGEAQLLMNEFESAKGDFEKVLEVNPQNKAARLQISMCQKKAKEHNERDRRIYANMFKKFAEQDAKEEANKAMGKKTSEGVTNEKGTDSQAMEEEKPEGHV											increase of AR activity (androgen receptor (AR); in the presence of androgen (10^-9 M R1881)): more than 30%; effect on the reporter activity (androgen receptor (AR); without androgen): no effect
